Assay results reported in patent publication US20130143969A1 (THE OHIO STATE UNIVERSITY, priority 2010, published 2013).
pIC50: −log10 of the molar value.

Columns and labels:
HL-60 cells = assay: Cell viability / anti-proliferation; assay type: cell-based
DNMT3b = assay: Quantitative RT-PCR of DNMT3b mRNA in MV4-11 cells; assay type: cell-based; conditions: 10 μM
Experimental: (§1) Cell Cycle and Apoptosis Analysis: MV4-11, ML-1, HL-60 and K562 leukemia cell lines were cultured in RPMI medium (VWR International, Inc., West Chester, Pa.) supplemented with 10% fetal bovine serum (Invitrogen, Carlsbad, Calif.) and 1% (v/v) penicillin/streptomycin (Invitrogen Life Technologies; Carlsbad, Calif.) antibiotic solution at 37° C. in an incubator under 5% CO2 atmosphere. For the ex-vivo studies, mononuclear cells obtained from bone marrow (BM) of patient with AML were prepared by Ficoll-Hypaque (Nygaard) gradient centrifugation and cultured with serum-free expansion medium (SFEM) (StemCell technologies, Vancouver, BC) supplemented with GM-CSF (50 ng/ml), IL-3 (20 ng/ml), IL-6 (20 ng/ml) and SCF ([…]). […] The cell cycle and apoptosis of MV4-11 cells was analyzed on a BD FACS Calibur (Beckman Coulter, Fullerton, Calif.) according to the standard protocol provided by the manufacturer.
(§2) Quantitative RT-PCR was used to quantify the mRNA levels of DNMT1, DNMT3a, DNMT3b, p15INK4B and p21. […] Quantitative real-time PCR reactions were performed in triplicate using Taqman gene expression assay (Applied Biosystems) with an ABI prism 7700 detector (Applied Biosystems). The target gene values were normalized to the values of internal control GAPDH or 18 S, and expressed as relative percent change (100×2^(˜ΔΔCt)) over non-treated samples.

DNMT1 [1] = assay: Quantitative RT-PCR of DNMT1 transcripts in MV4-11 cells; assay type: cell-based; design: dose or concentration left out as unconfirmed; conditions: curcumin
Experimental: as §1, §2

K562 = assay: Cytotoxicity; assay type: cell-based; conditions: Homo sapiens
[2] = rats, orally administered; cited from earlier work
MV4-11 cells = assay: Cell cycle distribution by flow cytometry; assay type: cell-based; conditions: 10 μM curcumin, 48 hour
Experimental: as §1

DNMT3a = assay: Western blot of DNMT3a protein in MV4-11 cells; assay type: cell-based
Experimental: (§3) Cell Cycle and Apoptosis Analysis: MV4-11, ML-1, HL-60 and K562 leukemia cell lines were cultured in RPMI medium (VWR International, Inc., West Chester, Pa.) supplemented with 10% fetal bovine serum (Invitrogen, Carlsbad, Calif.) and 1% (v/v) penicillin/streptomycin (Invitrogen Life Technologies; Carlsbad, Calif.) antibiotic solution at 37° C. in an incubator under 5% CO2 atmosphere. […] The cell cycle and apoptosis of MV4-11 cells was analyzed on a BD FACS Calibur (Beckman Coulter, Fullerton, Calif.) according to the standard protocol provided by the manufacturer.
(§4) Cells or tumor tissues were homogenized and lysed in ice-cold lysis buffer (20 mM, pH 7.0 HEPES, 150 mM NaCl, 0.1% NP40 supplemented with 1 mM β-glycerophosphate, 1 mM Na3VO4, 1 mM NaF, 1 mM benzamide and 1 mM phenylmethylsulfonyl fluoride) with protease inhibitors (Protease Inhibitor cocktail Set III, Calbiochem-Novabiochem Corporation, La Jolla, Calif.), and incubated on ice for 20 mM. […] The immunoblotted proteins were detected by ECL reagent (GE Healthcare Bio-Sciences Corp., Piscataway, N.J.).

p15^INK4B = assay: Quantitative RT-PCR of p15INK4B mRNA in leukemia cells; assay type: cell-based; conditions: for increase of p15INK4B expression level: MV4-11 cells, 10 μM curcumin
Experimental: as §1
Quantitative RT-PCR was used to quantify the mRNA levels of DNMT1, DNMT3a, DNMT3b, p15INK4B and p21. Total RNA was extracted with Trizol reagent (Invitrogen, Carlsbad, Calif.) and reverse transcribed by reverse transcriptase (Invitrogen). Quantitative real-time PCR reactions were performed in triplicate using Taqman gene expression assay (Applied Biosystems) with an ABI prism 7700 detector (Applied Biosystems). The target gene values were normalized to the values of internal control GAPDH or 18 S, and expressed as relative percent change (100×2^(˜ΔΔCt)) over non-treated samples.

DNMT1 [3] = assay: Ex vivo DNMT1 mRNA and protein in AML patient primary blast cells; assay type: cell-based, human
Experimental: as §3, §4
Quantitative RT-PCR was used to quantify the mRNA levels of DNMT1, DNMT3a, DNMT3b, p15INK4B and p21. […] Quantitative real-time PCR reactions were performed in triplicate using Taqman gene expression assay (Applied Biosystems) with an ABI prism 7700 detector (Applied Biosystems). […]

[4] = test system: p15^INK4B promoter region; assay: DNA methylation analysis of the p15INK4B promoter region (LC-MS/MS); assay type: cell-based; conditions: MV4-11 cells, 10 μM curcumin, 72 hours
Experimental: Genomic DNA isolated from MV4-11 cells was treated with bisulfite using the Epi methylation Kit (Qiagen, Minneapolis, Minn.) according to the instruction from the manufacturer and followed by PCR amplification as follows. The sequences of p15^INK4B primers were: forward 5′-GGGAGGGTAATGAAGTTGAGTTTA-3′ (SEQ ID NO. 1), and reverse 5′-ACCCTAAAACCCCAACTACCTAAAT-3′ (SEQ ID NO. 2). PCR amplifications were performed as follows: 95° C. for 5.5 min, 55° C. for 30s for 5 cycles, and 52° C. for 30 s for 38 cycles, 72° C. for 30s for 38 cycles, with a final step at 72° C. for 1 min. PCRs were carried out in a 100 μl volume containing 10 μl of buffer (10×), 2 μL of each primer (10 μM), 2 μL of (10 mM) dNTPs, 2 U of Platinum Taq DNA polymerase (Invitrogen, Carlsbad, Calif.), 70.6 μL ddH2O and 10 μL of bisulfite treated DNA in a GeneAmp 9700 thermal cycler (Perkin-Elmer, Norwalk, Conn.). PCR products were purified using QIAquick columns and eluted in water. A 500 ng aliquot of the PCR product was incubated with 25 UM. […] Fully methylated PCR products were purified using the QIAquick PCR Purification kit (Qiagen, Minneapolis, Minn.), according to the manufacturer's instructions and 200 ng of the purified DNA was hydrolyzed and the concentrations of 5mdC and 2dC in the hydrolysate were measured by LC-MS/MS using the conditions as described previously.

In the case of `COc1cc(/C=C/C(=O)CC(=O)/C=C/c2ccc(O)c(OC)c2)ccc1O` [curcumin], the “cell viability decreased to” value (HL-60 cells; HL-60 cells (FIG. 13B)) was 60-70%, the pIC50 (HL-60 cells; Homo sapiens, HL-60) was 4.82 to 5.00 and the “DNMT3b mRNA level, % of the control” value (DNMT3b; 48 h) was 40%. For the same molecule, the “DNMT3b mRNA level, % of the control” value (DNMT3b; 72 h) was 10%, the “decrease in the level of DNMT1 transcripts compared to untreated control” value (DNMT1 [1]; 48 hours) was 70% and the “decrease in the level of DNMT1 transcripts compared to untreated control” value (DNMT1 [1]; 72 hours) was 90%. For the same molecule, the pIC50 (K562) was 4.98, the “elimination half-life (T1/2)” value [2] was 1.7 ± 0.5 h and the “cell population in G0/G1 phase” value (MV4-11 cells) was 52.0%. The “cell population in G2/M phase” value (MV4-11 cells) was 8.0%, the “cell population in S phase” value (MV4-11 cells) was 16.1% and the “cell population in SubG1 phase” value (MV4-11 cells) was 24.9%. For the same molecule, the “DNMT3a protein level reduction” value (DNMT3a) was 50%, the p15INK4B reactivation (p15^INK4B; AML primary blast cells) was “reactivated” and the p15INK4B reactivation (p15^INK4B; HL-60 leukemia cells) was “reactivated”. For the same molecule, the “increase of p15INK4B expression level” value (p15^INK4B; 48 hours) was “approximately 12 fold”, the “increase of p15INK4B expression level” value (p15^INK4B; 72 hours) was about 43 fold and the “DNMT1 mRNA” value (DNMT1 [3]) was “down-regulate”. The DNMT1 protein level (DNMT1 [3]) was “down-regulate” and the “decrease of p15INK4B promoter methylation level” value [4] was “about 40%”.
